This assay has as its target T1, OlatOR1/OlatOR2 (Ostrinia latipennis, UniProt C1PHB5).
T1 sequence (C1PHB5 1-424): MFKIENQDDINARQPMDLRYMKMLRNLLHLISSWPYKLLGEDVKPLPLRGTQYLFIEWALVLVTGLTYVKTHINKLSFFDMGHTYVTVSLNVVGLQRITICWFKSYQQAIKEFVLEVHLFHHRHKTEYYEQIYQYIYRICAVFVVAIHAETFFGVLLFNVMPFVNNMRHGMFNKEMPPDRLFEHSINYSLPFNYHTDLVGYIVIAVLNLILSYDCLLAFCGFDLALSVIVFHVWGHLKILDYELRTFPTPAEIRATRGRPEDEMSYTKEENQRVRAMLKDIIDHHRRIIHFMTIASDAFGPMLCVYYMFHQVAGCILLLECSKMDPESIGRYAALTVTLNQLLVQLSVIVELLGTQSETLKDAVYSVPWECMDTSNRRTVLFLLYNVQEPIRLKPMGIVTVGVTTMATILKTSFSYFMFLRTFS
T1 sequence (C1PHA8 1-473 partner): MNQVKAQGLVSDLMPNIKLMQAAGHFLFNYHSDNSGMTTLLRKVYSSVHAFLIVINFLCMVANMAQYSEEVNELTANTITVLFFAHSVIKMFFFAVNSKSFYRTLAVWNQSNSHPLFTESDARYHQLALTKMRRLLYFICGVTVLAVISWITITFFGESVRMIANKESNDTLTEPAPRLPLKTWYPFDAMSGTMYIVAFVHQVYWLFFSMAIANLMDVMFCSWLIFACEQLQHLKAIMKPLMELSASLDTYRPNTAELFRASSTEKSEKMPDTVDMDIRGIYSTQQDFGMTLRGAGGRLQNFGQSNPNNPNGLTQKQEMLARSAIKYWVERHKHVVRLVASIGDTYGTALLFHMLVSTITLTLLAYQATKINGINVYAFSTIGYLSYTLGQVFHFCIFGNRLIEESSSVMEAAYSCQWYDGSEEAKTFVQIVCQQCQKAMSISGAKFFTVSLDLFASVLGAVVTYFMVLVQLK
Nature of the assay: two-electrode voltage clamp, Xenopus oocytes. Conditions: agonist, inward current; -80 mV; pH 7.6; 10 µM. The format is cell-based. A general note: In two-electrode clamp one electrode senses voltage and the other passes current.

As to `CC/C=C/CCCCCCCCCCO` [E11-14:OH, (E)-11-tetradecenol], the “two-electrode voltage clamp, Xenopus oocytes” value was “OscaOR1 and OlatOR1, strongly responded to E11-14:OH”. Take `CCCC/C=C\CCCCCCCCCCOC(C)=O` [Z11-16:OAc]: the “two-electrode voltage clamp, Xenopus oocytes” value is on record as “OlatOR1/OlatOR2 cells were found to show exactly the same response pattern as OscaOR1/OscaOR2 cells”.

Values taken from paper PMC2677733 (International Journal of Biological Sciences, 2009).
